Assays:
[1] = system: differentiated 3T3-L1 mouse adipocyte cells; assay: Adipocyte glucose consumption in differentiated 3T3-L1 cells (colorimetric glucose assay of the medium); assay type: cell-based; conditions: 3T3-L1, 24 h, compound 10 μM, loss of glucose from culture medium, mean fold change (compound/DMSO)
How it was run: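 Differentiated 3T3-L1 mouse adipocytes (rosiglitazone/dexamethasone/IBMX/insulin induction, day 11) treated 24 h with compounds at 10 μM, 0.1% DMSO final. Medium glucose measured colorimetrically; consumption taken as glucose loss from medium versus cell-free control, expressed as mean fold change compound/DMSO ±SD.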

[2] = target: T1, His6 tagged human recombinant FABP4 (Homo sapiens, UniProt P15090); assay: FABP4 TR-FRET assay: displacement of fluorescent fatty acid BODIPY FL C12; conditions: inhibition of BODIPY FL C12 binding to His6-FABP4; 1.2 μL of 1.085 mM compound in DMSO per well; triplicates, mean percent inhibition
T1 construct: purchased Cayman Chemicals 10009549
T1 sequence (P15090 whole entry): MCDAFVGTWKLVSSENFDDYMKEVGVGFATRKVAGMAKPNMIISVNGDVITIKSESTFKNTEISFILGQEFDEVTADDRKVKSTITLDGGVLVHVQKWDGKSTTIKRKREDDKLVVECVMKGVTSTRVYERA
How it was run: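 TR-FRET displacement of BODIPY FL C12 from His6-FABP4 bound by Tb-anti-His6 antibody, in Tris pH 7.4 buffer with γ-globulins, NP-40 and DTT; compound stock 1.085 mM in DMSO. Read after 10 min at room temperature as 520/615 nm ratio; mean % inhibition versus DMSO from triplicates.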

| SMILES | fold induction at 10 µM [1] | inhibition at 1085 µM (stock) [2] |
| --- | --- | --- |
| Clc1ccc2nc(N3CCCCC3)cc(-c3ccccc3)c2c1 [6-chloro-4-phenyl-2-(piperidin-1-yl)quinoline] | 0.99 | 64.3% |
| CCCCCCc1ccc2nc(N3CCCCC3)cc(-c3ccccc3)c2c1 [6-hexyl-4-phenyl-2-(piperidin-1-yl)quinoline] | 1.18 | 46.3% |
| CCCCCCc1ccc2nc(N(C)Cc3nn[nH]n3)cc(-c3ccccc3)c2c1 [6-hexyl-N-methyl-4-phenyl-N-[(2H-1,2,3,4-tetrazol-5-yl)methyl]quinolin-2-amine] | 1.52 | 37.8% |
| CCCCc1ccc2nc(N(C)C(C(=O)O)C(C)C)cc(-c3cccc(C#N)c3)c2c1 (stereo not drawn) [N-(6-butyl-4-(3-cyanophenyl)quinolin-2-yl)-N-methylvaline?] | 1.18 | 21% |
| CCCCCCc1ccc2nc(N(c3nnn[nH]3)C3CC3)cc(-c3ccccc3)c2c1 [N-cyclopropyl-6-hexyl-4-phenyl-N-(1H-1,2,3,4-tetrazol-5-yl)quinolin-2-amine] | 1.18 | 84% |
| CN(c1cc(-c2ccccc2)c2cc(CCc3ccccc3)ccc2n1)c1nnn[nH]1 [N-methyl-4-phenyl-6-(2-phenylethyl)-N-(1H-1,2,3,4-tetrazol-5-yl)quinolin-2-amine] | 1.17 | 76.3% |

Reference: patent US20230183179A1, “NOVEL CELL METABOLISM MODULATING COMPOUNDS AND USES THEREOF” (CRESCENTA BIOSCIENCES, priority 2020, published 2023)
